target: LRRK2 (Homo sapiens (Human), UniProt Q5S007, G2019S); test: In Vitro LRRK2 LabChip Assay; format: biochemical; settings: Table 4
In short: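 Phosphorylated and unphosphorylated peptides were separated by capillary electrophoresis and quantified by fluorescence. Ki came from a tight-binding equation, given in μM.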

Sequence of LRRK2 (Q5S007 970-2527 G2019S limits assumed): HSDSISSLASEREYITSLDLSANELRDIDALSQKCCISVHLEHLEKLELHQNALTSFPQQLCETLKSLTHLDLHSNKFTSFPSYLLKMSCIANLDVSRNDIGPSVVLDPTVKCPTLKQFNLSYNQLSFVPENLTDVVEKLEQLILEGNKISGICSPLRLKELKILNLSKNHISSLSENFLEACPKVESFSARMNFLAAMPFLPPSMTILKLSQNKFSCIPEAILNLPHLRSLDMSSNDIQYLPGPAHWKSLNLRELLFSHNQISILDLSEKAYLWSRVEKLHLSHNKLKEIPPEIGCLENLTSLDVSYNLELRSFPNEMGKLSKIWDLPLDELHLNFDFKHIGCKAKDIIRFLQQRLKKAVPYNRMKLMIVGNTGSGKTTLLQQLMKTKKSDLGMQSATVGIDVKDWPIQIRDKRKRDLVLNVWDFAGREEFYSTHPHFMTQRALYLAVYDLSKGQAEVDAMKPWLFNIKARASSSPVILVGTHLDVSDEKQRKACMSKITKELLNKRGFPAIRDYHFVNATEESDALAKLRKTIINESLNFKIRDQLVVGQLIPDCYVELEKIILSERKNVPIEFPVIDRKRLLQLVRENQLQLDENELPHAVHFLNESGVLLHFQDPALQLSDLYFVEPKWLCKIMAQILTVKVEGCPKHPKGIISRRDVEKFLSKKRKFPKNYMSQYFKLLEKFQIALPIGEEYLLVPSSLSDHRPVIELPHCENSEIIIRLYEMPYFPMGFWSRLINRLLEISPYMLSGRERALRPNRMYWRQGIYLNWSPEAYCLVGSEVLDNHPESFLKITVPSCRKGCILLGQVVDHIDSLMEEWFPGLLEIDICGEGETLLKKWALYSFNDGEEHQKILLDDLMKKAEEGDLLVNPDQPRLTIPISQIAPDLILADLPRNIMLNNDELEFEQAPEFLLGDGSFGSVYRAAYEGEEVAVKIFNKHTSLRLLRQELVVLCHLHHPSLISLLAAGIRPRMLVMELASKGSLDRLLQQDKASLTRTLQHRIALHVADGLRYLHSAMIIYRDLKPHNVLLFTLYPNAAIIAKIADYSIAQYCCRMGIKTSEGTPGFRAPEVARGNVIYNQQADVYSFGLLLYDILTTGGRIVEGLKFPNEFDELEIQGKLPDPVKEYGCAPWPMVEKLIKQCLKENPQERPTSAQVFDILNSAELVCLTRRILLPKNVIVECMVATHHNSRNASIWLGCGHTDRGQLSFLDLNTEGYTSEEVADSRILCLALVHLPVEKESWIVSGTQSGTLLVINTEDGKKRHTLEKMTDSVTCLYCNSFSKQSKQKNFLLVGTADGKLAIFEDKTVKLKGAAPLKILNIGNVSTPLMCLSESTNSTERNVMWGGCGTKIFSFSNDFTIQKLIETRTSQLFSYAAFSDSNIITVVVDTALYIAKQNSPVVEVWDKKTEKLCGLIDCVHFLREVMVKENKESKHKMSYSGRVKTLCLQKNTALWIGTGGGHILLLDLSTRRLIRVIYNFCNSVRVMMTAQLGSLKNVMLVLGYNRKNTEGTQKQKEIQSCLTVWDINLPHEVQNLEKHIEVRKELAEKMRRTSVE

Ki [nM] | Compound
4.1 | COCCNc1nc(Nc2ccc(C(=O)N3CCOCC3)cc2OC)ncc1Br [Example 229, {4-[5-Bromo-4-(2-methoxy-ethylamino)-pyrimidin-2-ylamino]-3-methoxy-phenyl}-morpholin-4-yl-methanone]
9.6 | COc1cc(C(=O)N2CCOCC2)ccc1Nc1ncc(Cl)c(NCC(C)OC)n1 (stereo not drawn) [Example 230, {4-[5-Chloro-4-(2-methoxy-propylamino)-pyrimidin-2-ylamino]-3-methoxy-phenyl}-morpholin-4-yl-methanone]
7.4 | CNc1nc(Nc2ccc(C(=O)N3CCOCC3)cc2C)ncc1Cl [Example 232, (4-(5-chloro-4-(methylamino)pyrimidin-2-ylamino)-3-methylphenyl) (morpholino) methanone]
6.1 | CNc1nc(Nc2ccc(C(=O)N3CCC(O)CC3)cc2C)ncc1Cl [Example 233, (4-(5-chloro-4-(methylamino)pyrimidin-2-ylamino)-3-methylphenyl)(4-hydroxypiperidin-1-yl)methanone]
3.2 | CCNc1nc(Nc2ccc(C(=O)N3CCOCC3)cc2OC(F)(F)F)ncc1C(F)(F)F [Example 234, (4-(4-(ethylamino)-5-(trifluoromethyl)pyrimidin-2-ylamino)-3-(trifluoromethoxy)phenyl)(morpholino) methanone]
11.2 | CNc1nc(Nc2ccc(C(=O)N3CCOCC3)cc2OC(F)(F)F)ncc1C(F)(F)F [Example 235, (4-(4-(methylamino)-5-(trifluoromethyl)pyrimidin-2-ylamino)-3-(trifluoromethoxy)phenyl)(morpholino) methanone]
4.2 | [2H]C1([2H])OC([2H])([2H])C([2H])([2H])N(C(=O)c2cc(Cl)c(Nc3ncc(C(F)(F)F)c(NC)n3)cc2OC)C1([2H])[2H] [Example 236, (5-chloro-2-methoxy-4-(4-(methylamino)-5-(trifluoromethyl)pyrimidin-2-ylamino)phenyl) (perdeuteromorpholino) methanone]
4.8 | CNc1nc(Nc2cc(OC)c(C(=O)N3CCOCC3)cc2F)ncc1C(F)(F)F [Example 237, (5-fluoro-2-methoxy-4-(4-(methylamino)-5-(trifluoromethyl)pyrimidin-2-ylamino)phenyl) (morpholino)methanone]
1.4 | CCNc1nc(Nc2cc(OC)c(C(=O)N3CCOCC3)cc2F)ncc1C(F)(F)F [Example 238, (4-(4-(ethylamino)-5-(trifluoromethyl)pyrimidin-2-ylamino)-5-fluoro-2-methoxyphenyl) (morpholino) methanone]
2.9 | CNc1nc(Nc2cc(F)c(C(=O)N3CCOCC3)cc2OC)ncc1C(F)(F)F [Example 239, [2-Fluoro-5-methoxy-4-(4-methylamino-5-trifluoromethyl-pyrimidin-2-ylamino)-phenyl]-moipholin-4-yl-methanone]
9.8 | CCNc1nc(Nc2cc(F)c(C(=O)N(C)C)cc2OC)ncc1C#N [Example 240, 4-(5-Cyano-4-ethylamino-pyrimidin-2-ylamino)-2-fluoro-5-methoxy-N,N-dimethyl-benzamide]
1.8 | CCNc1nc(Nc2ccc(C(=O)N3CCOCC3)c(F)c2OC)ncc1C(F)(F)F [Example 241, (4-(4-(ethylamino)-5-(trifluoromethyl)pyrimidin-2-ylamino)-2-fluoro-3-methoxyphenyl) (morpholino)methanone]
2.8 | CCNc1nc(Nc2ccc(C(=O)N3C[C@@H]4C[C@H]3CO4)c(F)c2OC)ncc1C(F)(F)F [Example 242, (1S,4S)-2-oxa-5-azabicyclo[2.2.1] heptan-5-yl(4-(4-(ethylamino)-5-(trifluoromethyl)pyrimidin-2-ylamino)-2-fluoro-3-methoxyphenyl) methanone]
13.5 | CNc1nc(Nc2ccc(C(=O)N3C[C@H](F)[C@@H](F)C3)cc2OC)ncc1C#N [Example 245, 2-(4-((3S,4S)-3,4-difluoropyrrolidine-1-carbonyl)-2-methoxyphenylamino)-4-(methylamino) pyrimidine-5-carbonitrile]
5 | CNc1nc(Nc2cc(OC)c(C(=O)N3CCC(OC)C3)cc2Cl)ncc1C(F)(F)F (stereo not drawn) [Example 246, (5-chloro-2-methoxy-4-(4-(methylamino)-5-(trifluoromethyl)pyrimidin-2-ylammo)phenyl)(3-methoxypyrrolidin-1-yl)methanone]
2.7 | CNc1nc(Nc2cc(F)c(C(=O)N3CCC(OC)C3)cc2OC)ncc1C(F)(F)F (stereo not drawn) [Example 247, (2-fluoro-5-methoxy-4-(4-(methylamino)-5-(trifluoromethyl)pyrimidin-2-ylamino)phenyl)(3-methoxypyrrolidin-1-yl)methanone]
9.2 | CNc1nc(Nc2cc(F)c(C(=O)N(C)CC(C)(C)O)cc2OC)ncc1C(F)(F)F [Example 248, 2-fluoro-N-(2-hydroxy-2-methylpropyl)-5-methoxy-N-methyl-4-(4-(methylamino)-5-(trifluoromethyl)pyrimidin-2-ylamino)benzamide]
8 | CNc1nc(Nc2cc(F)c(C(=O)N3C[C@@H](C)O[C@@H](C)C3)cc2OC)ncc1C(F)(F)F [Example 249, ((2S,6R)-2,6-dimethylmorpholino) (2-fluoro-5-methoxy-4-(4-(methylamino)-5-(trifluoromethyl)pyrimidin-2-ylamino)phenyl) methanone]
4.5 | CCNc1nc(Nc2ccc(C(=O)N3CCOCC3)cc2OC(C)C)ncc1C(F)(F)F [Example 252, (4-(4-(ethylamino)-5-(trifluoromethyl)pyrimidin-2-ylamino)-3-isopropoxyphenyl) (morpholino) methanone]
12.1 | COc1cc(C(=O)N2CCOCC2)ccc1Nc1ncc(Cl)c(N2CCCCC2)n1 [Example 254, (4-(5-chloro-4-(piperidin-1-yl)pyrimidin-2-ylamino)-3-methoxyphenyl) (morpholino) methanone]
17.9 | COc1cc(C(=O)N2CCOCC2)ccc1Nc1ncc(Cl)c(N2CCCC2)n1 [Example 255, (4-(5-chloro-4-(pyrrolidin-1-yl)pyrimidin-2-ylamino)-3-methoxyphenyl) (morpholino) methanone]

same assay, conditions: Table 5

Ki [nM] | Compound
2 | CCNc1nc(Nc2cc(F)c(C(=O)N3CCOCC3)cc2OC)ncc1C(F)(F)F [Example 256, [4-(4-Ethylamino-5-trifluoromethyl-pyrimidin-2-ylamino)-2-fluoro-5-methoxy-phenyl]-morpholin-4-yl-methanone]
2 | CCNc1nc(Nc2ccc(C(=O)N3CCOCC3)cc2OC)ncc1C(F)(F)F [Example 257]
5 | CCNc1nc(Nc2cc(OC)c(C(=O)N3CCOCC3)cc2Cl)ncc1Cl [Example 258, [5-Chloro-4-(5-chloro-4-ethylamino-pyrimidin-2-ylamino)-2-methoxy-phenyl]-morpholin-4-yl-methanone]
47 | COc1cc(Nc2ncc(Cl)c(OC)n2)c(Cl)cc1C(=O)N1CCOCC1 [Example 260, [5-Chloro-4-(5-chloro-4-methoxy-pyrimidin-2-ylamino)-2-methoxy-phenyl]-morpholin-4-yl-methanone]
47 | COc1nc(Nc2ccc(C(=O)N3CCOCC3)cc2Cl)ncc1Cl [Example 261, [3-Chloro-4-(5-chloro-4-methoxy-pyrimidin-2-ylamino)-phenyl]-morpholin-4-yl-methanone]
24 | COc1cc(C(=O)N2CCOCC2)c(Cl)cc1Nc1ncc(C(F)(F)F)c(OC)n1 [Example 262, [2-Chloro-5-methoxy-4-(4-methoxy-5-trifluoromethyl-pyrimidin-2-ylamino)-phenyl]-morpholin-4-yl-methanone]
20 | COc1cc(C(=O)N2CCOCC2)ccc1Nc1ncc(C(F)(F)F)c(OC)n1 [Example 263, [3-Methoxy-4-(4-methoxy-5-trifluoromethyl-pyrimidin-2-ylamino)-phenyl]-morpholin-4-yl-methanone]
33 | COc1cc(C(=O)N2CCOCC2)ccc1Nc1ncc(Cl)c(OC2CCOCC2)n1 [Example 264, {4-[5-Chloro-4-(tetrahydro-pyran-4-yloxy)-pyrimidin-2-ylamino]-3-methoxy-phenyl}-morpholin-4-yl-methanone]

same assay, conditions: Table 6

Ki [nM] | Compound
4.2 | CNc1nc(Nc2cc(OC)c(C(=O)NC3(C#N)CC3)cc2Cl)ncc1C(F)(F)F [Example 265, 5-Chloro-N-(1-cyano-cyclopropyl)-2-methoxy-4-(4-methylamino-5-trifluoromethyl-pyrimidin-2-ylamino)-benzamide]
8 | CNc1nc(Nc2cc(OC)c(C(=O)N3CC(C)OC(C)C3)cc2Cl)ncc1C(F)(F)F (stereo not drawn) [Example 267, [5-Chloro-2-methoxy-4-(4-methylamino-5-trifluoromethyl-pyrimidin-2-ylamino)-phenyl]-(2,6-dimethyl-morpholin-4-yl)-methanone]
19 | COc1cc(C(=O)N2CCOCC2)ccc1Nc1ncc(C(F)(F)F)c(N2CCCC2)n1 [Example 268, [3-Methoxy-4-(4-pyrrolidin-1-yl-5-trifluoromethyl-pyrimidin-2-ylamino)-phenyl]-morpholin-4-yl-methanone]
3.7 | CNc1nc(Nc2ccc(C(=O)NC3COC3)cc2OC)ncc1C(F)(F)F [Example 271, 3-Methoxy-4-(4-methylamino-5-trifluoromethyl-pyrimidin-2-ylamino)-N-oxetan-3-yl-benzamide]
1.7 | CNc1nc(Nc2ccc(C(=O)N3CC4CCC(C3)O4)cc2OC)ncc1C(F)(F)F [Example 272, [3-Methoxy-4-(4-methylamino-5-trifluoromethyl-pyrimidin-2-ylamino)-phenyl]-(8-oxa-3-aza-bicyclo[3.2.1]oct-3-yl)-methanone]
4.1 | CNc1nc(Nc2ccc(C(=O)N3CCCC3)cc2OC)ncc1C(F)(F)F [Example 274, [3-Methoxy-4-(4-methylamino-5-trifluoromethyl-pyrimidin-2-ylamino)-phenyl]-pyrrolidin-1-yl-methanone]

Compound | Ki [nM]
CNc1nc(Nc2ccc(C(=O)N3CCOCC3)cc2OC2CCC2)ncc1C(F)(F)F [Example 269, [3-Cyclobutoxy-4-(4-methylamino-5-trifluoromethyl-pyrimidin-2-ylamino)-phenyl]-morpholin-4-yl-methanone] | 2.5
